Laboratory results from PubChem BioAssay (NCI).
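All cell lines were grown in 96-well plates and treated with compound for 48 hours. GI50: concentration for 50% inhibition of growth. Definition used: TGI = concentration required for complete inhibition of growth.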

What was measured:
Test in all cases: NCI-60 cell line screen, 48 h
[1] = test system: NCI/ADR-RES ovarian
[2] = test system: TK-10 renal
[3] = test system: UACC-62 melanoma
[4] = test system: A549 NSCLC
[5] = test system: RXF 393 renal
[6] = test system: MDA-MB-231 breast
[7] = test system: A498 renal
[8] = test system: HOP-62 NSCLC
[9] = test system: CCRF-CEM leukemia
[10] = test system: CAKI-1 renal
[11] = test system: SF-539 CNS
[12] = test system: NCI-H460 lung
[13] = test system: SF-295 CNS
[14] = test system: MOLT-4 leukemia
[15] = test system: LOX IMVI melanoma
[16] = test system: K-562 leukemia
[17] = test system: HCT-116 colon
[18] = test system: HL-60(TB) leukemia
[19] = test system: SW-620 colon
[20] = test system: 786-0 renal
[21] = test system: HCC-2998 colon
[22] = test system: OVCAR-3 ovarian
[23] = test system: HT29 colon
[24] = test system: SK-MEL-2 melanoma
[25] = test system: MDA-MB-435
[26] = test system: DU-145 prostate
[27] = test system: SF-268 CNS
[28] = test system: M14 melanoma
[29] = test system: SR leukemia
[30] = test system: SK-MEL-28 melanoma
[31] = test system: NCI-H23 lung
[32] = test system: HOP-92 NSCLC
[33] = test system: U251 CNS
[34] = test system: OVCAR-4 ovarian
[35] = test system: NCI-H226 lung
[36] = test system: MALME-3M melanoma
[37] = test system: HS 578T breast
[38] = test system: T-47D breast
[39] = test system: OVCAR-5 ovarian
[40] = test system: UO-31 renal
[41] = test system: IGROV1 ovarian
[42] = test system: MCF7 breast
[43] = test system: SK-OV-3 ovarian
[44] = test system: SNB-75 CNS
[45] = test system: SNB-19 CNS
[46] = test system: PC-3 prostate
[47] = test system: HCT-15 colon
[48] = test system: NCI-H522 lung
[49] = test system: RPMI-8226 leukemia
[50] = test system: UACC-257 melanoma
[51] = test system: COLO 205 colon
[52] = test system: SK-MEL-5 melanoma
[53] = test system: ACHN renal
[54] = test system: OVCAR-8 ovarian
[55] = test system: BT-549 breast
[56] = test system: SN12C renal
[57] = test system: KM12 colon

O=C(CCl)N1c2ccccc2Sc2ccc3ccccc3c21
GI50 [1]: 2180 nM | TGI [1]: 5260 nM | GI50 [2]: 1540 nM | TGI [2]: 2920 nM | GI50 [3]: 1530 nM | TGI [3]: 2880 nM | GI50 [4]: 1980 nM | TGI [4]: 4750 nM | GI50 [5]: 1490 nM | TGI [5]: 2830 nM | GI50 [6]: 1640 nM | TGI [6]: 3140 nM | GI50 [7]: 1730 nM | TGI [7]: 3310 nM | GI50 [8]: 1630 nM | TGI [8]: 3050 nM | GI50 [9]: 220 nM | TGI [9]: 533 nM | GI50 [10]: 498 nM | TGI [10]: 950 nM | GI50 [11]: 1720 nM | TGI [11]: 3150 nM | GI50 [12]: 1890 nM | TGI [12]: 3820 nM | GI50 [13]: 1680 nM | TGI [13]: 3150 nM | GI50 [14]: 478 nM | GI50 [15]: 143 nM | TGI [15]: 299 nM | GI50 [16]: 659 nM | TGI [16]: 3490 nM | GI50 [17]: 652 nM | TGI [17]: 2060 nM | GI50 [18]: 1070 nM | TGI [18]: 5130 nM | GI50 [19]: 1270 nM | TGI [19]: 2890 nM | GI50 [20]: 1440 nM | TGI [20]: 3030 nM | GI50 [21]: 1800 nM | TGI [21]: 3250 nM | GI50 [22]: 1360 nM | TGI [22]: 2720 nM | GI50 [23]: 1280 nM | TGI [23]: 4580 nM | GI50 [24]: 1970 nM | TGI [24]: 3800 nM | GI50 [25]: 1460 nM | TGI [25]: 3010 nM | GI50 [26]: 1530 nM | TGI [26]: 2900 nM | GI50 [27]: 1640 nM | TGI [27]: 3160 nM | GI50 [28]: 1660 nM | TGI [28]: 3430 nM | GI50 [29]: 634 nM | TGI [29]: 9740 nM | GI50 [30]: 1650 nM | TGI [30]: 3010 nM | GI50 [31]: 1180 nM | TGI [31]: 2540 nM | GI50 [32]: 1160 nM | TGI [32]: 2510 nM | GI50 [33]: 1550 nM | TGI [33]: 2950 nM | GI50 [34]: 659 nM | TGI [34]: 2900 nM | GI50 [35]: 2360 nM | TGI [35]: 5500 nM | GI50 [36]: 352 nM | TGI [36]: 1320 nM | GI50 [37]: 2040 nM | TGI [37]: 6560 nM | GI50 [38]: 1660 nM | TGI [38]: 3690 nM | GI50 [39]: 1480 nM | TGI [39]: 3030 nM | GI50 [40]: 281 nM | TGI [40]: 1070 nM | GI50 [41]: 567 nM | TGI [41]: 1500 nM | GI50 [42]: 1490 nM | TGI [42]: 3290 nM | GI50 [43]: 1790 nM | TGI [43]: 3180 nM | GI50 [44]: 1160 nM | TGI [44]: 2400 nM | GI50 [45]: 1580 nM | TGI [45]: 3090 nM | GI50 [46]: 1470 nM | TGI [46]: 3060 nM | GI50 [47]: 1090 nM | TGI [47]: 2530 nM | GI50 [48]: 509 nM | TGI [48]: 1100 nM | GI50 [49]: 1320 nM | TGI [49]: 4060 nM | GI50 [50]: 1480 nM | TGI [50]: 2870 nM | GI50 [51]: 1690 nM | TGI [51]: 3140 nM | GI50 [52]: 1600 nM | TGI [52]: 2960 nM | GI50 [53]: 801 nM | TGI [53]: 2010 nM | GI50 [54]: 1640 nM | TGI [54]: 3710 nM | GI50 [55]: 1560 nM | TGI [55]: 3520 nM | GI50 [56]: 1590 nM | TGI [56]: 2980 nM | GI50 [57]: 1820 nM | TGI [57]: 3350 nM
